Test results as given in patent US8329913B2, “Carbazole derivative, solvate thereof, or pharmaceutically acceptable salt thereof” (Zeria Pharmaceutical Co., Ltd., priority 2004, dated 2012).

What follows are compounds tested against T1, human PPARα (Homo sapiens, UniProt Q07869) (assay: Human PPARα agonist assay (luciferase reporter in transfected CV-1 cells)). Settings: at 1 μM test compound alone; 100% = 1 μM stimulant (GW7647) only; CV-1 cells expressing human PPARα and RXRα.
T1 construct: 1.6 kb of DNA fragment including human PPARα gene was collected from the gel; expressed in transfected cells; host or cells: CV-1 cells, transient transfection with pCI-hPPARa, pCI-hRXRa and the reporter pGL3-PPRE3-TK
T1 sequence (Q07869 1-468): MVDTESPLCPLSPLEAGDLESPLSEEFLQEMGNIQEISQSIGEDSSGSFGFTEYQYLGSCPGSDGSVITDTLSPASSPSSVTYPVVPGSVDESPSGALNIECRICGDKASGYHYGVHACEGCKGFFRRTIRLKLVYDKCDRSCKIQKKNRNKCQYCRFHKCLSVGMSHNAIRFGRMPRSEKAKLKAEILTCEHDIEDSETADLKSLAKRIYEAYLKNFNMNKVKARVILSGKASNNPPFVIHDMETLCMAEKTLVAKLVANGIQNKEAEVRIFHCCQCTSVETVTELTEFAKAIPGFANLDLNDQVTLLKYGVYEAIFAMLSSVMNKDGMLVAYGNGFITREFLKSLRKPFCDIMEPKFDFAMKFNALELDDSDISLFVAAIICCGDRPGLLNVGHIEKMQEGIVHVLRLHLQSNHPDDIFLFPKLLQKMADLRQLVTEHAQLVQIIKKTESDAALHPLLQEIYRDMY
T1 sequence (P19793 1-462 partner): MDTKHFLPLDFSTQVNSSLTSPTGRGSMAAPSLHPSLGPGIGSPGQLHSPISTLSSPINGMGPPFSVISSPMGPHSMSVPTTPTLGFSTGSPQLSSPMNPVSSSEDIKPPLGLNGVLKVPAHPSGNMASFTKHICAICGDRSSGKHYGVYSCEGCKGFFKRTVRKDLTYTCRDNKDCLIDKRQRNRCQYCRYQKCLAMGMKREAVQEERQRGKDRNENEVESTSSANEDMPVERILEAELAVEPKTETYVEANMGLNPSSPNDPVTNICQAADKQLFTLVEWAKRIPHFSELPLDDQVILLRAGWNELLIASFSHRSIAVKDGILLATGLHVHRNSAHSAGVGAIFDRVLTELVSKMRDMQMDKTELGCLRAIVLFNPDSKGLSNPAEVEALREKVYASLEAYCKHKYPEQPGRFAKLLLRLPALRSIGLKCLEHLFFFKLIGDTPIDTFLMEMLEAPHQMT
Type: cell-based
Protocol: CV-1 cells (96 well plate), where human PPARα and RXRα has expressed in the transient transfection of reporter plasmid (see reference 6a) were washed once with PBS (100 μL/well), and then supplemented with 100 μL/well of DMEM medium including 10% of fetal bovine serum to which test compounds at final concentrations of 10 nM, 30 nM, 100 nM, 300 nM, 1 μM, and 3 μM, as well as GW7647 (not limited to GW7647 shown as an example, but may be any PPARα agonist) at a final concentration of 1 nM as a stimulant were added, and incubated in a 5% CO2 incubator at 37° C. for 24 hours. After removing the medium, the CV-1 cells were washed once with PBS (100 μL/well), and supplemented with 60 μL/well of 1× Passive Lysis Buffer (manufactured by Promega Corporation). The CV-1 cells were incubated at room temperature for 30 minutes, stirred, and then by using Dual-Luciferase Reporter Assay System (manufactured by Promega Corporation), luciferase activities of firefly and renilla were measured using 1420 ARVO Multilabel Counter (manufactured by Wallac Oy). Also, the same experiments as that described above were respectively carried out for the cases where only the above-mentioned stimulant (10 nM, 100 nM, 1 μM) were used, where only the above-mentioned test compounds were used, or where neither was used (nonsupplemented), and luciferase activities of firefly and renilla were measured. Values corrected by dividing the firefly luciferase activities by the renilla luciferase activities were calculated as specific activities and used for evaluations. […]
Also, human PPARα agonist activities of the test compounds were evaluated by using a percentage (activity) where the specific activity when nonsupplemented is regarded as 0% and the specific activity in case only 1 μM stimulant was added is regarded as 100%, from the specific activity in case only the test compound is used.
CV-1 cells were cultured in DMEM medium (manufactured by Invitrogen Corporation) including 10% fetal bovine serum (manufactured by Dainippon Pharmaceutical Co., Ltd.) in 225T-Flask (manufactured by Corning Costar). The cells were detached by 0.5 g/L trypsin-0.2 g/L EDTA (ethylene diamine tetra-acetic acid) (manufactured by Invitrogen Corporation), and then suspended in the DMEM medium including 10% fetal bovine serum to a cell concentration of 2×10^5 cells/mL. Thereafter, the cells were seeded into 96 well plate at 2×10^4 cells/0.1 mL/well, incubated in the CO2 incubator at 37° C. overnight, and then the plasmids prepared by the above-mentioned reference 2a, reference 3a, and reference 4a were transfected into cells by using a lipofectamine reagent (manufactured by Invitrogen Corporation) according to the attached manual.
Namely, after CV-1 cells were cultured overnight, the cells were washed with PBS (100 μL/well). Thereafter the cells were incubated for 5 hours at 37° C./5% CO2 in the MEM medium (manufactured by Invitrogen Corporation) including 430 ng/mL of human PPARα expression plasmid (pCI-hPPARa) prepared by the reference 2a, 430 ng/mL of human RXRα expression plasmid (pCI-hRXRa) prepared by the reference 3a, and 140 ng/mL of the reporter plasmid (pGL3-PPRE3-TK) prepared by the reference 4a, 10 ng/mL of phRL-TK vector (manufactured by Promega Corporation) and 2 μL/mL of lipofectamine.

Going from `COc1cc(Cn2c3ccccc3c3c(OC(C)(C)C(=O)O)cccc32)ccc1OCc1nc(-c2ccco2)oc1C` [Example 7, 2-{9-[4-((2-(furan-2-yl)-5-methyl-oxazole-4-yl)methoxy)-3-methoxy-benzyl]-9H-carbazole-4-yloxy-}2-methyl-propionic acid] to `COc1cc(Cn2c3ccccc3c3c(OCC(C)(C)C(=O)O)cccc32)ccc1OCc1nc(-c2ccco2)oc1C` [Example 23, 3-{9-[4-((2-(furan-2-yl)-5-methyl-oxazole-4-yl)methoxy)-3-methoxy-benzyl]-9H-carbazole-4-yloxy}-2,2-dimethyl-propionic acid], the “Human PPARα agonist activities, Activity % (at 1 μM)” value rises from 39% to 69%.

First: COc1cc(Cn2c3ccccc3c3c(OC(C)(C)C(=O)[O-])cccc32)ccc1OCc1nc(-c2cccs2)oc1C.[Na+] [Example 32]
Second: COc1cc(Cn2c3ccccc3c3c(OC(C)(C)C(=O)O)cccc32)ccc1OCc1nc(-c2cccs2)oc1C [Example 8, 2-{9-[3-methoxy-4-((5-methyl-2-(thiophene-2-yl)-oxazole-4-yl)methoxy)-benzyl]-9H-carbazole-4-yloxy}-2-methyl-propionic acid]
The “Human PPARα agonist activities, Activity % (at 1 μM)” value of the first is higher: 66% for the first, 60% for the second.

Going from `COc1cc(Cn2c3ccccc3c3c(OCC(C)(C)C(=O)O)cccc32)ccc1OCc1nc(-c2cccs2)oc1C` [Example 24, 3-{9-[3-methoxy-4-((5-methyl-2-(thiophene-2-yl)-oxazole-4-yl)methoxy)-benzyl]-9H-carbazole-4-yloxy}-2,2-dimethyl-propionic acid] to `COc1cc(Cn2c3ccccc3c3c(OCC(C)(C)C(=O)O)cccc32)ccc1OCc1nc(-c2ccccc2)oc1C` [Example 22, 3-{9-[3-methoxy-4-((5-methyl-2-phenyl-oxazole-4-yl)methoxy)-benzyl]-9H-carbazole-4-yloxy}-2,2-dimethyl-propionic acid], the “Human PPARα agonist activities, Activity % (at 1 μM)” value falls from 64% to 40%.

First: COc1cc(Cn2c3ccccc3c3c(OC(C)(C)C(=O)O)cccc32)ccc1OCc1sc(-c2ccccc2)nc1C [Example 16, 2-{9-[3-methoxy-4-((4-methyl-2-phenyl-thiazole-5-yl)methoxy)-benzyl]-9H-carbazole-4-yloxy}-2-methyl-propionic acid]
Second: COc1cc(Cn2c3ccccc3c3c(OC(C)(C)C(=O)O)cccc32)ccc1OCc1nc(-c2ccccc2)sc1C [Example 15, 2-{9-[3-methoxy-4-((5-methyl-2-phenyl-thiazole-4-yl)methoxy)-benzyl]-9H-carbazole-4-yloxy}-2-methyl-propionic acid]
The “Human PPARα agonist activities, Activity % (at 1 μM)” value of the first is lower: 56% for the first, 73% for the second.

Going from `COc1cc(Cn2c3ccccc3c3c(OC(C)(C)C(=O)O)cccc32)ccc1OCc1nc(-c2ccccc2)oc1C` [Example 3, 2-{9-[3-methoxy-4-((5-methyl-2-phenyl-oxazole-4-yl)methoxy)-benzyl]-9H-carbazole-4-yloxy}-2-methyl-propionic acid] to `COc1cc(Cn2c3ccccc3c3c(OC(C)C(=O)O)cccc32)ccc1OCc1nc(-c2ccccc2)oc1C` (racemic) [Example 4, (±)-2-{9-[3-methoxy-4-((5-methyl-2-phenyl-oxazole-4-yl)methoxy)-benzyl]-9H-carbazole-4-yloxy}propionic acid], the “Human PPARα agonist activities, Activity % (at 1 μM)” value falls from 43% to 21%.

Compared with `Cc1oc(-c2ccccc2)nc1COc1ccc(Cn2c3ccccc3c3c(OC(C)(C)C(=O)O)cccc32)cc1` [Example 13, 2-methyl-2-{9-[4-((5-methyl-2-phenyl-oxazole-4-yl)methoxy)-benzyl]-9H-carbazole-4-yloxy}propionic acid], `CCC(Oc1cccc2c1c1ccccc1n2Cc1ccc(OCc2nc(-c3ccccc3)oc2C)c(OC)c1)C(=O)O` (racemic) [Example 5, (±)-2-{9-[3-methoxy-4-((5-methyl-2-phenyl-oxazole-4-yl)methoxy)-benzyl]-9H-carbazole-4-yloxy}butyric acid] is lower in “Human PPARα agonist activities, Activity % (at 1 μM)” value: 37% for the first, 27% for the second.

Going from `CCC(Oc1cccc2c1c1ccccc1n2Cc1ccc(OCc2nc(-c3ccccc3)oc2C)c(OC)c1)C(=O)[O-].[Na+]` (centres unmarked) [Example 31] to `CC[C@H](Oc1cccc2c1c1ccccc1n2Cc1ccc(OCc2nc(-c3ccccc3)oc2C)c(OC)c1)C(=O)[O-].[Na+]` [Example 38, sodium (S)-(+)-2-{9-[3-methoxy-4-((5-methyl-2-phenyl-oxazole-4-yl)methoxy)-benzyl]-9H-carbazole-4-yloxy}butyrate], the “Human PPARα agonist activities, Activity % (at 1 μM)” value rises from 21% to 32%.

First: COc1cc(Cn2c3ccccc3c3c(OCC(C)(C)C(=O)[O-])cccc32)ccc1OCc1nc(-c2ccccc2)oc1C.[Na+] [Example 34]
Second: COc1cc(Cn2c3ccccc3c3c(OCCC(C)C(=O)[O-])cccc32)ccc1OCc1nc(-c2ccccc2)oc1C.[Na+] (racemic) [Example 37]
The “Human PPARα agonist activities, Activity % (at 1 μM)” value of the first is higher: 41% for the first, 20% for the second.

Compared with `COc1cc(Cn2c3ccccc3c3c(OCCC(C)C(=O)O)cccc32)ccc1OCc1nc(-c2ccccc2)oc1C` (racemic) [Example 27, (±)-4-{9-[3-methoxy-4-((5-methyl-2-phenyl-oxazole-4-yl)methoxy)-benzyl]-9H-carbazole-4-yloxy}-2-methyl-butyric acid], `COc1cc(Cn2c3ccccc3c3c(O[C@H](C)C(=O)[O-])cccc32)ccc1OCc1nc(-c2ccccc2)oc1C.[Na+]` [Example 43, sodium (R)-2-{9-[3-methoxy-4-((5-methyl-2-phenyl-oxazole-4-yl)methoxy)-benzyl]-9H-carbazole-4-yloxy}propionate] is higher in “Human PPARα agonist activities, Activity % (at 1 μM)” value: 23% for the first, 35% for the second.

First: COc1cc(Cn2c3ccccc3c3c(OCC(C)(C)C(=O)O)cccc32)ccc1OCc1nc(-c2ccncc2)oc1C [Example 25, 3-{9-[3-methoxy-4-((5-methyl-2-pyridine-4-yl-oxazole-4-yl)methoxy)-benzyl]-9H-carbazole-4-yloxy}-2,2-dimethyl-propionic acid]
Second: COc1cc(Cn2c3ccccc3c3c(OC(C)C(=O)[O-])cccc32)ccc1OCc1nc(-c2ccccc2)oc1C.[Na+] (racemic) [Example 30]
The “Human PPARα agonist activities, Activity % (at 1 μM)” value of the first is higher: 47% for the first, 35% for the second.
